pEC50: −log10 of the molar value. Square brackets hold non-standard residues; d marks the D form. Peptide text beside a SMILES is read from it. * marks the point of attachment. X7 = O=C([C@@H](Cc1ccc(O)cc1)NC(=S)NCCc1ccccc1)*; Diphenylacetyl = O=C(C(c1ccccc1)c1ccccc1)*; dTyr(3-F) = N[C@H](Cc1ccc(O)c(F)c1)C(=O)O; Pro(4,4-F2) = O=C(O)[C@@H]1CC(F)(F)CN1; 1Nal = N[C@@H](Cc1cccc2ccccc12)C(=O)O; 2Nal = N[C@@H](Cc1ccc2ccccc2c1)C(=O)O; dNMeY = CN[C@H](Cc1ccc(O)cc1)C(=O)O; Hydrocinnamoyl = O=C(CCc1ccccc1)*; Tic = O=C(O)[C@@H]1Cc2ccccc2CN1; Gly(N-CH2CH2OH) = O=C(O)CNCCO; NMeL = CN[C@@H](CC(C)C)C(=O)O; X12 = O=C(Cc1cc(O)cc(O)c1)*; d(hSer) = N[C@H](CCO)C(=O)O; X9 = O=C(c1ccc(O)c(O)c1O)*; NMeS = CN[C@@H](CO)C(=O)O; Pip = O=C(O)[C@@H]1CCCCN1; Nle = CCCC[C@H](N)C(=O)O
target: T1, human Chemokine like receptor 1 (Homo sapiens, UniProt Q99788); assay: Activation of Tango CMKLR1-bla U2OS cells (beta-lactamase FRET reporter); format: cell-based; settings: not given
T1 construct: host or cells: U2OS (Tango CMKLR1-bla U2OS)
T1 sequence (Q99788 1-373): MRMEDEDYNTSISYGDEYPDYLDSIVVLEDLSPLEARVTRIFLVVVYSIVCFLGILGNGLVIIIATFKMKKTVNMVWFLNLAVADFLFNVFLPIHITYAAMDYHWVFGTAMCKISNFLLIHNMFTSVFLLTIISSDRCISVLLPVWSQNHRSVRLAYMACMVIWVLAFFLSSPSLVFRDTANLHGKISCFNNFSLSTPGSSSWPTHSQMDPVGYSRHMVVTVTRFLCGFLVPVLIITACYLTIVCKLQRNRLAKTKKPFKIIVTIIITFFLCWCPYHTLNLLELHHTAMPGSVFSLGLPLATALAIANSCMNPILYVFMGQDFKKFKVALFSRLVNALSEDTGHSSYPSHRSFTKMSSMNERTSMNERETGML
Procedure: The polypeptide sequences described above are the polypeptide sequences disclosed in the patent JP2010-229093A of BANYU PHARMA CO LTD: (D-Tyr)-Phe-Leu-Pro-(D-Ser)-Gln-Phe-(D-Ala)-Tic-Ser was used as a positive control (SEQ ID NO: 102).
The activation of the compound on Tango™ CMKLR1-bla U2OS cells (Invitrogen Cat. nos. K1551) was tested.
The activation of each compound in the above experiments on Tango™ CMKLR1-bla U2OS cells was determined as follows:
Day 1: Cell Seeding on Plate
2. The medium was removed, and the cells were washed with DPBS twice, followed by addition of 3 mL of 0.05% trypsin, and placed in a 37° C., 5% CO2 incubator (Thermo Fisher, Waltham, Massachusetts, USA) for 3-5 minutes. After the cells were rounded, 3-5 mL of medium (medium formula: DMEM 90%, Dialyzed FBS 10%, NEAA 0.1 mM, HEPES (pH 7.3) 25 mM, Penicillin 100 U/mL, Streptomycin 100 μg/mL) was added to terminate digestion.
2. The digested cells were transferred to a 15 mL centrifuge tube (430790, Corning), centrifuged at 1000 rpm for 5 minutes (5810R, Eppendorf, Hamburg, Germany), and the supernatant was discarded.
3. 7 mL of medium (DMEM+10% FBS) was added, blowed into a single cell suspension, counted by a cell counter, and adjusted the cell suspension to a desired cell density of 250,000/mL with the medium.
4. The cell suspension was seeded into a 384-well cell plate (Corning 3712) in 40 μL/well to make the number of cells 10000 cells/well, and 32 μL of medium was added to the blank control.
5. The incubation was performed overnight at 37° C. under 5% CO2.
Day 2: Dosing and Testing
1. Preparation of 200× Compound Plate
1.1 The test compound was formulated into a 10 mM working solution in DMSO.
1.2 45 μL of 10 mM test compound was added to the 2nd column of rows A to P in the Echo-384 well plate. The compound was subjected to a 3-fold dilution with Precision (30 μL of DMSO was added to the 3rd to 11th columns; 15 μL of the drug solution was pipetted from the 2nd column to the 3rd column, blown and evenly mixed; then 15 μL of the drug solution was pipetted from the 3rd column to the 4th column, blown and evenly mixed; the drugs was subjected to a 3-fold dilution to obtain 10 concentrations in total). The 1st and 12th columns of the Echo-384 well plate were supplemented with 30 μL of DMSO.
2. Preparation of Intermediate Plate
500 nL, i.e., 0.5 μL of the diluted compound (or DMSO) in the 200× compound plate was transferred into the corresponding position of V-bottom 384-well plate with Echo. 20 μL of medium was added to each well, centrifuged, shaken and evenly mixed. The concentration of the drugs in each well of the 2nd to 11th column of intermediate plate (i.e., 5× compound plate) were shown in following Table 4.
3.1 The cell plate was taken out from the incubator and observed under a microscope. The diluted compound or DMSO in the intermediate plate was added to the cell plate in 10 μL/well in the corresponding cell plate, and 40 μL of medium was pre-filled in each well.
3.2 The cells were incubated at 37° C. under 5% CO2 for 4 hours.
4.1 1 mM CCF4-AM, solution B, Solution C, and Solution D were used to prepare an appropriate amount of 6× detection solution. The LiveBLAzer™-FRET B/G Loading kit (K1095, Thermo Fisher, Waltham, Massachusetts, USA) kit containing CCF-4AM and solutionB, solutionC, and solutionD was also purchased from invitrogen (K1157, Thermo Fisher, Waltham, Massachusetts, USA).
4.2 The cells were observed under a microscope and the cell plate was equilibrated to room temperature.
4.3 6 μL of CCF-4AM dissolved solution A, 60 μL of solution B, 904 μL of solution C and 30 μL of solution D were pipetted in an EP tube, blown, and evenly mixed to obtain a 6× detection solution. The prepared 6× detection solution was pipetted to a 384-well plate in 10 μL/well.

| Structure (SMILES) | pEC50 |
| --- | --- |
| CC(C)C[C@H](NC(=O)[C@H](Cc1ccccc1)NC(=O)[C@H](N)Cc1ccc(O)cc1)C(=O)N1CCCC[C@H]1C(=O)N[C@H](CO)C(=O)N[C@@H](CCC(N)=O)C(=O)N[C@@H](Cc1ccccc1)C(=O)N[C@H](C)C(=O)N1Cc2ccccc2C[C@H]1C(=O)N[C@@H](CO)C(=O)O [YW-96, (D-Tyr)-Phe-Leu-(S-Pip)-(D-Ser)-Gln-Phe-(D-Ala)-Tic-Ser] (H-[dY]FL[Pip][dS]QF[dA][Tic]S-OH; N-terminus assumed) | 7.41 |
| CC(C)C[C@@H](C(=O)N1CCC[C@H]1C(=O)N[C@H](CO)C(=O)N[C@@H](CCC(N)=O)C(=O)N[C@@H](Cc1cccc2ccccc12)C(=O)N[C@H](C)C(=O)N1Cc2ccccc2C[C@H]1C(=O)N[C@@H](CO)C(=O)O)N(C)C(=O)[C@H](Cc1ccccc1)NC(=O)[C@H](N)Cc1ccc(O)cc1 [YW-165, (D-Tyr)-Phe-(NMe-Leu)-Pro-(D-Ser)-Gln-1Nal-(D-Ala)-Tic-Ser-OH] (H-[dY]F[NMeL]P[dS]Q[1Nal][dA][Tic]S-OH) | 8.82 |
| CCCC[C@H](NC(=O)[C@H](Cc1ccccc1)NC(=O)[C@H](N)Cc1ccc(O)cc1)C(=O)N1CCC[C@H]1C(=O)N[C@H](CO)C(=O)N[C@@H](CCC(N)=O)C(=O)N[C@@H](Cc1ccccc1)C(=O)N[C@H](C)C(=O)N1Cc2ccccc2C[C@H]1C(=O)N[C@@H](CO)C(=O)O [YW-197, (D-Tyr)-Phe-Nle-Pro-(D-Ser)-Gln-Phe-(D-Ala)-Tic-Ser] (H-[dY]F[Nle]P[dS]QF[dA][Tic]S-OH) | 8.00 |
| CC(C)C[C@H](NC(=O)[C@H](Cc1ccccc1)NC(=O)[C@@H](Cc1ccc(O)cc1)NC(=O)C(c1ccccc1)c1ccccc1)C(=O)N1CCC[C@H]1C(=O)N[C@H](CO)C(=O)N[C@@H](CCC(N)=O)C(=O)N[C@@H](Cc1ccccc1)C(=O)N[C@H](C)C(=O)N1Cc2ccccc2C[C@H]1C(=O)N[C@@H](CO)C(=O)O [YW-78, diphenylacetyl-(D-Tyr)-Phe-Leu-Pro-(D-Ser)-Gln-Phe-(D-Ala)-Tic-Ser-OH] (Diphenylacetyl-[dY]FLP[dS]QF[dA][Tic]S-OH) | 7.59 |
| CC(C)C[C@@H](C(=O)N1CCC[C@H]1C(=O)N[C@H](CO)C(=O)N[C@@H](CCC(N)=O)C(=O)N[C@@H](Cc1ccc2ccccc2c1)C(=O)N[C@H](C)C(=O)N1Cc2ccccc2C[C@H]1C(=O)N[C@@H](CO)C(=O)O)N(C)C(=O)[C@H](Cc1ccccc1)NC(=O)[C@H](N)Cc1ccc(O)cc1 [YW-164, (D-Tyr)-Phe-(NMe-Leu)-Pro-(D-Ser)-Gln-2Nal-(D-Ala)-Tic-Ser-OH] (H-[dY]F[NMeL]P[dS]Q[2Nal][dA][Tic]S-OH) | 8.96 |

same assay, conditions: determination by the method of Effect Embodiment 1; read-out: EC50

| pEC50 | Structure (SMILES) |
| --- | --- |
| 7.04 | CC(C)C[C@@H](C(=O)N1CCC[C@H]1C(=O)N[C@H](CCO)C(=O)N[C@@H](CCC(N)=O)C(=O)N[C@@H](Cc1ccccc1)C(=O)N[C@H](C)C(=O)N1Cc2ccccc2C[C@H]1C(=O)N[C@@H](CO)C(=O)O)N(C)C(=O)[C@H](Cc1ccccc1)NC(=O)[C@H](N)Cc1ccc(O)cc1 [YW-175, (D-Tyr)-Phe-(NMe-Leu)-Pro-(D-HoSer)-Gln-Phe-(D-Ala)-Tic-Ser-OH] (H-[dY]F[NMeL]P[d(hSer)]QF[dA][Tic]S-OH; N-terminus assumed) |
| 7.55 | CC(C)C[C@H](NC(=O)[C@H](Cc1ccccc1)NC(=O)[C@@H](Cc1ccc(O)cc1)NC(=S)NCCc1ccccc1)C(=O)N1CCC[C@H]1C(=O)N[C@H](CO)C(=O)N[C@@H](CCC(N)=O)C(=O)N[C@@H](Cc1ccccc1)C(=O)N[C@H](C)C(=O)N1Cc2ccccc2C[C@H]1C(=O)N[C@@H](CO)C(=O)O [YW-73, Phenethylcarbamothioyl-(D-Tyr)-Phe-Leu-Pro-(D-Ser)-Gln-Phe-(D-Ala)-Tic-Ser-OH] (X7-FLP[dS]QF[dA][Tic]S-OH) |
| 8.48 | CC(C)C[C@@H](C(=O)N1CC(F)(F)C[C@H]1C(=O)N[C@H](CO)C(=O)N[C@@H](CCC(N)=O)C(=O)N[C@@H](Cc1ccc2ccccc2c1)C(=O)N[C@H](C)C(=O)N1Cc2ccccc2C[C@H]1C(=O)N(C)[C@@H](CO)C(=O)O)N(C)C(=O)[C@H](Cc1ccccc1)NC(=O)[C@H](N)Cc1ccc(O)c(F)c1 [YW-226, (D-Tyr(3F))-Phe-(NMe-Leu)-(DiFluorPro)-(D-Ser)-Gln-(Nal-2)-(D-Ala)-Tic-(NMe-Ser)] (H-[dTyr(3-F)]F[NMeL][Pro(4,4-F2)][dS]Q[2Nal][dA][Tic][NMeS]-OH) |
| 8.66 | CN[C@H](Cc1ccc(O)cc1)C(=O)N[C@@H](Cc1ccccc1)C(=O)N(C)[C@@H](CC(C)C)C(=O)N1CCC[C@H]1C(=O)N[C@H](CO)C(=O)N[C@@H](CCC(N)=O)C(=O)N[C@@H](Cc1ccccc1)C(=O)N[C@H](C)C(=O)N1Cc2ccccc2C[C@H]1C(=O)N[C@@H](CO)C(=O)O [YW-163, (D-NMe-Tyr)-Phe-(NMe-Leu)-Pro-(D-Ser)-Gln-Phe-(D-Ala)-Tic-Ser-OH] (H-[dNMeY]F[NMeL]P[dS]QF[dA][Tic]S-OH) |
| 7.51 | CC(C)C[C@H](NC(=O)[C@H](Cc1ccccc1)NC(=O)[C@@H](Cc1ccc(O)cc1)NC(=O)CCc1ccccc1)C(=O)N1CCC[C@H]1C(=O)N[C@H](CO)C(=O)N[C@@H](CCC(N)=O)C(=O)N[C@@H](Cc1ccccc1)C(=O)N[C@H](C)C(=O)N1Cc2ccccc2C[C@H]1C(=O)N[C@@H](CO)C(=O)O [YW-71, 3-phenylpropanoyl-(D-Tyr)-Phe-Leu-Pro-(D-Ser)-Gln-Phe-(D-Ala)-Tic-Ser-OH] (Hydrocinnamoyl-[dY]FLP[dS]QF[dA][Tic]S-OH) |
| 8.54 | CC(C)C[C@H](NC(=O)[C@H](Cc1ccccc1)NC(=O)[C@@H](Cc1ccc(O)cc1)NC(=O)Cc1cc(O)cc(O)c1)C(=O)N1CCC[C@H]1C(=O)N[C@H](CO)C(=O)N[C@@H](CCC(N)=O)C(=O)N[C@@H](Cc1ccccc1)C(=O)N[C@H](C)C(=O)N1Cc2ccccc2C[C@H]1C(=O)N[C@@H](CO)C(=O)O [YW-131, 3,5-Dihydroxyphenylacetyl-(D-Tyr)-Phe-Leu-Pro-(D-Ser)-Gln-Phe-(D-Ala)-Tic-Ser] (X12-[dY]FLP[dS]QF[dA][Tic]S-OH) |
| 8.24 | CC(C)C[C@@H](C(=O)N1CCC[C@H]1C(=O)N[C@H](CO)C(=O)N[C@@H](CCC(N)=O)C(=O)N[C@@H](Cc1ccccc1)C(=O)N[C@H](C)C(=O)N1Cc2ccccc2C[C@H]1C(=O)N(CCO)CC(=O)O)N(C)C(=O)[C@H](Cc1ccccc1)NC(=O)[C@H](N)Cc1ccc(O)cc1 [YW-172, (D-Tyr)-Phe-(NMe-Leu)-Pro-(D-Ser)-Gln-Phe-(D-Ala)-Tic-NHoSer-OH] (H-[dY]F[NMeL]P[dS]QF[dA][Tic][Gly(N-CH2CH2OH)]-OH) |
| 8.04 | CC(C)C[C@H](NC(=O)[C@H](Cc1ccccc1)NC(=O)[C@@H](Cc1ccc(O)cc1)NC(=O)c1ccc(O)c(O)c1O)C(=O)N1CCC[C@H]1C(=O)N[C@H](CO)C(=O)N[C@@H](CCC(N)=O)C(=O)N[C@@H](Cc1ccccc1)C(=O)N[C@H](C)C(=O)N1Cc2ccccc2C[C@H]1C(=O)N[C@@H](CO)C(=O)O [YW-129, 2,3,4-Trihydroxybenzoyl-(D-Tyr)-Phe-Leu-Pro-(D-Ser)-Gln-Phe-(D-Ala)-Tic-Ser-OH] (X9-[dY]FLP[dS]QF[dA][Tic]S-OH) |

Source: patent US12129312B2, “Peptide compound, application thereof and composition containing same” (priority 2017, dated 2024)
